Read-outs that look alike come from different tables or passages of the source.
Key:
human leukocyte elastase = molecular target: T1, human leukocyte elastase (Homo sapiens, UniProt P08246); assay: Inactivation kinetics of human leukocyte elastase (chromogenic substrate MeOSuc-Ala2-Pro-Val-pNA); format: biochemical; conditions: 25° C., pH 8.0
T1 sequence (P08246 30-247 limits assumed): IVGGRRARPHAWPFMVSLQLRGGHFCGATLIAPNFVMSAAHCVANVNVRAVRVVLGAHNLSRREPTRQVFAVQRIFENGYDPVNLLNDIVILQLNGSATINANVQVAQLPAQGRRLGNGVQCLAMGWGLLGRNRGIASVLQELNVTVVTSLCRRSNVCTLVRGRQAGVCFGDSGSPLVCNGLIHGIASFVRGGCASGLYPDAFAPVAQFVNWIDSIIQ
Experimental: (§1) The inactivating or inhibitory properties of the coumarin derivatives were tested with respect to a certain number of enzymes: human leukocyte elastase, bovine α-chymotrypsin, human thrombin and bovine trypsin. The kinetic measurements were taken at 25° C. in the following buffers: 0.1 M Hepes, 0.5 M NaCl, 0.01% Tween 80, pH 8.0 (human leukocyte elastase); 0.025 M NaH2PO4, 0.05 M KCl, pH 7.5 (α-chymotrypsin); 0.01 M Tris, 0.01 M Hepes, 0.1 M NaCl, 0.1% PEG-6000, pH 7.5 (human thrombin); 0.1 M Tris, 0.01 M CaCl2, pH 7.5 (bovine trypsin). The chromogenic substrates used to determine the activity of the enzymes are: MeOSuc-Ala2-Pro-Val-pNA (human leukocyte elastase); Suc-Ala2-Pro-Phe-pNA (α-chymotrypsin); H-D-Phe-Pip-Arg-pNA (human thrombin); N-benzoyl-Arg-pNA (bovine trypsin) (pNA: para-nitroaniline).
(§2) The interaction of a suicide substrate with a serine protease corresponds to the minimum reaction scheme described in equation 1 in which E represents the enzyme, I represents the inhibitor, E-I represents the acyl-enzyme and E-I′ represents the inactivated enzyme [Silverman R. B., 1988, “Mechanism-based enzyme inactivation: chemistry and enzymology”, volume 1 CRC Press, Boca Raton, Fla.]: [drawing 76]
(§3) When k4 is small compared to k3, equation 1 can be simplified (equation 2, [Daniels et al., 1983, J. Biol. Chem., 258: 15046-15053]): [drawing 77]
(§4) Considering the first instants of the reaction, the system reduces to a simplified equation of the form of equation 2.
(§5) The kinetic constants characterizing the inactivation of the enzymes with the coumarin derivatives were determined using either the conventional sampling method (or batchwise method) or a method placing the inhibitor and the substrate in competition (or continuous method); these methods are described by Pochet et al. [Pochet et al., 1996, J. Med. Chem., 39: 2579-2585].
(§6) The inactivation of serine proteaaes with the coumarin derivatives is thus characterized by the following constants (see Eq. 2):
(§7) KI: apparent dissociation constant of an enzyme-inhibitor complex located upstream of ki
(§8) ki: first-order rate constant for inactivation at infinite inhibitor concentration
(§9) ki/KI: index of the overall inactivating efficacy of the inhibitor.

bovine α-chymotrypsin = molecular target: T2, bovine α-chymotrypsin (Bos taurus, UniProt P00766); assay: Inactivation kinetics of bovine α-chymotrypsin (chromogenic substrate Suc-Ala2-Pro-Phe-pNA); format: biochemical; conditions: 25° C., pH 7.5, N.I. = non-inactivator; for kinact/KI: read-out: Ki/KI or kobs/[I], α-CT
T2 construct: bovine α-chymotrypsin
Experimental: as §1, §2, §3, §4, §5, §6, §7, §8, §9

human thrombin = molecular target: T3, human thrombin (Homo sapiens, UniProt P00734); assay: Inactivation kinetics of human thrombin (chromogenic substrate H-D-Phe-Pip-Arg-pNA); format: biochemical; conditions: 25° C., pH 7.5, N.I. = non-inactivator; for kinact/KI: read-out: Ki/KI or kobs/[I], Thrombin
T3 construct: human thrombin
Experimental: as §1, §2, §3, §4, §5, §6, §7, §8, §9

bovine trypsin = molecular target: T4, bovine trypsin (Bos taurus, UniProt P00760); assay: Inactivation kinetics of bovine trypsin (chromogenic substrate N-benzoyl-Arg-pNA); format: biochemical; conditions: 25° C., pH 7.5, N.I. = non-inactivator
T4 sequence (P00760 24-246): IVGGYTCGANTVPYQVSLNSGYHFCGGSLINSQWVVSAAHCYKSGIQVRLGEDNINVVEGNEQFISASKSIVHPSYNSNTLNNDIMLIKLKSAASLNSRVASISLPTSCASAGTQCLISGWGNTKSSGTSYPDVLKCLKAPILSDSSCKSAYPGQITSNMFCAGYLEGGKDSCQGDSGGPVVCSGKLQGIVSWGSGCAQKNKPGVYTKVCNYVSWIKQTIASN
Experimental: as §1, §2, §3, §4, §5, §6, §7, §8, §9

[1] = TABLE 5, phenyl esters, inactivation phase, N.I. = non-inactivator, read-out: Ki/KI or kobs/[I], HLE
[2] = TABLE 5, phenyl esters, without 6-chloromethyl: inactivation phase of transient inactivation
[3] = TABLE 5, phenyl esters, inactivation phase
[4] = TABLE 3, no chloromethyl in position 6, inactivation phase of transient inactivation, read-out: Ki/KI or kobs/[I], LHE
[5] = TABLE 3, no chloromethyl in position 6
[6] = TABLE 1, 2-pyridyl esters, inactivation phase of transient inactivation, read-out: Ki/KI or kobs/[I], LHE
[7] = TABLE 1, 2-pyridyl esters, inactivation phase

## O=C(Oc1cc(Cl)cc(Cl)c1)c1cc2cc(CCl)ccc2oc1=O [Ic″6, 3,5-dichlorophenyl 6-chloromethyl-2-oxo-2H-1-benzopyran-3-carboxylate]
Human leukocyte elastase; [1]
  kinact/KI: 4000 M⁻¹ s⁻¹
Bovine α-chymotrypsin; [2]
  kinact/KI: 110000 M⁻¹ s⁻¹
Human thrombin; [3]
  Ki/KI or kobs/[I], Thrombin: N.I.

## CC(C)C(=O)OCc1ccc2oc(=O)c(C(=O)Oc3cncc(Cl)c3)cc2c1 [Id9, 5-chloro-3-pyridyl 6-dimethylacetoxymethyl-2-oxo-2H-1-benzopyran-3-carboxylate]
Bovine trypsin; TABLE 3
  Ki/KI or kobs/[I], Trypsin: N.I. N.I. N.I. N.I. N.I. N.I. N.I. — —
Bovine trypsin; second table headed TABLE 3
  Ki/KI or kobs/[I], Trypsin: N.I. N.I. N.I. N.I. N.I. N.I. N.I. — —
other
  melting point: 162 to 164 °C
Human leukocyte elastase; [4]
  kinact/KI: 45000 M⁻¹ s⁻¹
Human leukocyte elastase; TABLE 3, inactivation phase
  Ki/KI or kobs/[I], LHE: 45000 M⁻¹ s⁻¹
Bovine α-chymotrypsin; [5]
  Ki/KI or kobs/[I], α-CT: N.I.^a N.I. N.I. N.I. N.I. N.I. N.I. N.I.
Bovine α-chymotrypsin; second table headed TABLE 3
  Ki/KI or kobs/[I], α-CT: N.I.^a N.I. N.I. N.I. N.I. N.I. N.I. N.I.
Human thrombin; TABLE 3
  Ki/KI or kobs/[I], Thrombin: N.I. N.I. N.I. N.I. N.I. N.I. N.I. N.I. —
Human thrombin; second table headed TABLE 3
  Ki/KI or kobs/[I], Thrombin: N.I. N.I. N.I. N.I. N.I. N.I. N.I. N.I. —

## O=C(Oc1cc(Cl)ccc1Cl)c1cc2ccccc2oc1=O [Ia4, 2,5-dichlorophenyl 2-oxo-2H-1-benzopyran-3-carboxylate]
other
  melting point: 189 to 192 °C
Human leukocyte elastase; [1]
  kinact/KI: 5800 M⁻¹ s⁻¹
Human thrombin; [3]
  Ki/KI or kobs/[I], Thrombin: N.I.

## O=C(Sc1cccc(Cl)c1)c1cc2cc(CCl)ccc2oc1=O [III2, S-(3-chlorophenyl) 6-chloromethyl-2-oxo-2H-1-benzopyran-3-carbothioate]
other
  melting point: 194 to 195 °C
Human leukocyte elastase; [1]
  kinact/KI: < 200 M⁻¹ s⁻¹
Bovine α-chymotrypsin; [2]
  kinact/KI: 730000 M⁻¹ s⁻¹
Human thrombin; [3]
  Ki/KI or kobs/[I], Thrombin: — N.I.

## O=C(Sc1ccccc1)c1cc2cc(CCl)ccc2oc1=O [III1, S-phenyl 6-chloromethyl-2-oxo-2H-1-benzopyran-3-carbothioate]
Human leukocyte elastase; TABLE 5, phenyl esters, inactivation phase, N.I. = non-inactivator
  Ki/KI or kobs/[I], HLE: N.I.
Bovine α-chymotrypsin; [2]
  kinact/KI: 39000 M⁻¹ s⁻¹

## O=C(Oc1c(Cl)cccc1Cl)c1cc2cc(CCl)ccc2oc1=O [Ic″5, 2,6-dichlorophenyl 6-chloromethyl-2-oxo-2H-1-benzopyran-3-carboxylate]
Human leukocyte elastase; [1]
  kinact/KI: < 200 M⁻¹ s⁻¹
Bovine α-chymotrypsin; [2]
  Ki/KI or kobs/[I], α-CT: N.I.
Human thrombin; [3]
  Ki/KI or kobs/[I], Thrombin: — — — — N.I. N.I.

## COc1cc(Cl)cc(OC(=O)c2cc3cc(CCl)ccc3oc2=O)c1 [Ic″7, 3-chloro-5-methoxyphenyl 6-chloromethyl-2-oxo-2H-1-benzopyran-3-carboxylate]
Human leukocyte elastase; [1]
  kinact/KI: 350 M⁻¹ s⁻¹
Bovine α-chymotrypsin; [2]
  kinact/KI: 1200 M⁻¹ s⁻¹

## O=C(Oc1cccc(Cl)n1)c1cc2cc(CCl)ccc2oc1=O [Ic′″12, 6-chloro-2-pyridyl 6-chloromethyl-2-oxo-2H-1-benzopyran-3-carboxylate]
other
  melting point: 172 to 173 °C
Human leukocyte elastase; [6]
  kinact/KI: 26000 M⁻¹ s⁻¹
Human leukocyte elastase; TABLE 1, inactivation phase
  Ki/KI or kobs/[I], LHE: 26000 M⁻¹ s⁻¹
Bovine α-chymotrypsin; TABLE 1, 2-pyridyl esters
  kinact/KI: 107000 M⁻¹ s⁻¹
Human thrombin; [7]
  kinact/KI: 7200 M⁻¹ s⁻¹
Human thrombin; TABLE 1, inactivation phase
  Ki/KI or kobs/[I], Thrombin: 7200 M⁻¹ s⁻¹

## O=C(Oc1ccccc1[N+](=O)[O-])c1cc2cc(CCl)ccc2oc1=O [Ic″1, 2-nitrophenyl 6-chloromethyl-2-oxo-2H-1-benzopyran-3-carboxylate]
other
  melting point: 163 to 164 °C
Human leukocyte elastase; [1]
  kinact/KI: 1250 M⁻¹ s⁻¹
Bovine α-chymotrypsin; [2]
  kinact/KI: 9300 M⁻¹ s⁻¹

## Cc1ccc2oc(=O)c(C(=O)Oc3cccc(Cl)c3)cc2c1 [Ib1, 3-chlorophenyl 6-methyl-2-oxo-2H-1-benzopyran-3-carboxylate]
other
  melting point: 175 to 176 °C
Human leukocyte elastase; [1]
  kinact/KI: 1100 M⁻¹ s⁻¹
Bovine α-chymotrypsin; [2]
  kinact/KI: 9400 M⁻¹ s⁻¹

## O=C(Oc1cccc(Cl)c1Cl)c1cc2cc(CCl)ccc2oc1=O [Ic″3, 2,3-dichlorophenyl 6-chloromethyl-2-oxo-2H-1-benzopyran-3-carboxylate]
Human leukocyte elastase; [1]
  kinact/KI: < 200 M⁻¹ s⁻¹
Bovine α-chymotrypsin; [2]
  kinact/KI: 1200 M⁻¹ s⁻¹
Human thrombin; [3]
  Ki/KI or kobs/[I], Thrombin: — — — — N.I. N.I.

## O=C(Oc1cncc(Cl)c1)c1cc2ccccc2oc1=O [Ia3, 5-chloro-3-pyridyl 2-oxo-2H-1-benzopyran-3-carboxylate]
Bovine trypsin; TABLE 3
  Ki/KI or kobs/[I], Trypsin: N.I. N.I. N.I. N.I. N.I. N.I. N.I. — —
Human leukocyte elastase; [4]
  kinact/KI: 32800 M⁻¹ s⁻¹
Bovine α-chymotrypsin; [5]
  Ki/KI or kobs/[I], α-CT: N.I.^a N.I. N.I. N.I. N.I. N.I. N.I. N.I.
Human thrombin; TABLE 3
  Ki/KI or kobs/[I], Thrombin: N.I. N.I. N.I. N.I. N.I. N.I. N.I. N.I. —

## Cl.NCc1ccc2oc(=O)c(C(=O)Oc3cncc(Cl)c3)cc2c1 [If3, 5-chloro-3-pyridyl 6-aminomethyl-2-oxo-2H-1-benzopyran-3-carboxylate hydrochloride]
other
  melting point: 230 °C (dec.)
Human leukocyte elastase; [4]
  kinact/KI: 9100 M⁻¹ s⁻¹
Human leukocyte elastase; TABLE 3, inactivation phase
  Ki/KI or kobs/[I], LHE: 9100 M⁻¹ s⁻¹
Bovine α-chymotrypsin; [5]
  Ki/KI or kobs/[I], α-CT: N.I.^a N.I. N.I. N.I. N.I. N.I. N.I. N.I.
Bovine α-chymotrypsin; second table headed TABLE 3
  Ki/KI or kobs/[I], α-CT: N.I.^a N.I. N.I. N.I. N.I. N.I. N.I. N.I.
Human thrombin; TABLE 3
  Ki/KI or kobs/[I], Thrombin: N.I. N.I. N.I. N.I. N.I. N.I. N.I. N.I. —
Human thrombin; second table headed TABLE 3
  Ki/KI or kobs/[I], Thrombin: N.I. N.I. N.I. N.I. N.I. N.I. N.I. N.I. —

## CC(=O)OCc1ccc2oc(=O)c(C(=O)Oc3cccc(Cl)c3)cc2c1 [Id2, 3-chlorophenyl 6-acetoxymethyl-2-oxo-2H-1-benzopyran-3-carboxylate]
Human leukocyte elastase; [1]
  kinact/KI: 1440 M⁻¹ s⁻¹
Bovine α-chymotrypsin; [2]
  kinact/KI: 20000 M⁻¹ s⁻¹
Human thrombin; [3]
  kinact/KI: 580 M⁻¹ s⁻¹

## O=C(Oc1cncc(Cl)c1)c1cc2cc(Br)ccc2oc1=O [Ig1, 5-chloro-3-pyridyl 6-bromo-2-oxo-2H-1-benzopyran-3-carboxylate]
Human leukocyte elastase; [4]
  kinact/KI: 58000 M⁻¹ s⁻¹
Bovine α-chymotrypsin; [5]
  Ki/KI or kobs/[I], α-CT: # N.I.

## O=C(Oc1cccc(C(F)(F)F)c1)c1cc2cc(CCl)ccc2oc1=O [Ic″2, 3-trifluoromethylphenyl 6-chloromethyl-2-oxo-2H-1-benzopyran-3-carboxylate]
other
  melting point: 162 to 163 °C
Human leukocyte elastase; [1]
  kinact/KI: 330 M⁻¹ s⁻¹
Bovine α-chymotrypsin; [2]
  kinact/KI: < 500 M⁻¹ s⁻¹

## O=C(Oc1ccc(Cl)cn1)c1cc2cc(CCl)ccc2oc1=O [Ic′″13, 5-chloro-2-pyridyl 6-chloromethyl-2-oxo-2H-1-benzopyran-3-carboxylate]
other
  melting point: 171 to 172 °C
Human leukocyte elastase; [6]
  kinact/KI: 110 M⁻¹ s⁻¹
Human leukocyte elastase; TABLE 1, inactivation phase
  Ki/KI or kobs/[I], LHE: 110 M⁻¹ s⁻¹
Bovine α-chymotrypsin; TABLE 1, 2-pyridyl esters
  kinact/KI: ~2500 M⁻¹ s⁻¹
Human thrombin; [7]
  Ki/KI or kobs/[I], Thrombin: N.I.
Human thrombin; TABLE 1, inactivation phase
  Ki/KI or kobs/[I], Thrombin: N.I.

## CC(C)(C)C(=O)OCc1ccc2oc(=O)c(C(=O)Oc3cncc(Cl)c3)cc2c1 [Id8, 5-chloro-3-pyridyl 6-trimethylacetoxymethyl-2-oxo-2H-1-benzopyran-3-carboxylate]
Bovine trypsin; TABLE 3
  Ki/KI or kobs/[I], Trypsin: N.I. N.I. N.I. N.I. N.I. N.I. N.I. — —
Human leukocyte elastase; [4]
  kinact/KI: 95500 M⁻¹ s⁻¹
Bovine α-chymotrypsin; [5]
  Ki/KI or kobs/[I], α-CT: N.I.^a N.I. N.I. N.I. N.I. N.I. N.I. N.I.
Human thrombin; TABLE 3
  Ki/KI or kobs/[I], Thrombin: N.I. N.I. N.I. N.I. N.I. N.I. N.I. N.I. —

Source: patent US6355658B1, “Coumarin derivatives, methods of preparation and application as medicines” (Centre National de la Recherche Scientifique, priority 1997, dated 2002)
